From the NIST ThermoML archive (doi:10.1016/j.jct.2018.06.015)

Assay: xn = mol fraction of the nth substance listed
Details: 100 kPa, Liquid; for speed of sound: Frequency=3 MHz, Single path-length method; for mass density: Vibrating tube method

CCCCOCCOCCO [3,6-dioxa-1-decanol] + CCCCCCCCCCO
Details | mass density, 293.15 K [kg/m3] | mass density, 298.15 K [kg/m3] | mass density, 303.15 K [kg/m3] | mass density, 308.15 K [kg/m3] | mass density, 313.15 K [kg/m3] | speed of sound, 293.15 K [m/s] | speed of sound, 298.15 K [m/s] | speed of sound, 303.15 K [m/s] | speed of sound, 308.15 K [m/s] | speed of sound, 313.15 K [m/s]
x1 = 0.0523 | 835.331 | 831.923 | 828.507 | 825.069 | 821.625 | 1393.8 | 1376.5 | 1359.8 | 1343.3 | 1326.4
x1 = 0.102 | 840.692 | 837.244 | 833.786 | 830.318 | 826.838 | 1391.2 | 1374.1 | 1357.4 | 1340.8 | 1324
x1 = 0.1579 | 846.823 | 843.333 | 839.841 | 836.332 | 832.81 | 1388.7 | 1371.5 | 1354.9 | 1338.3 | 1321.7
x1 = 0.207 | 852.21 | 848.697 | 845.172 | 841.631 | 838.082 | 1386.6 | 1369.3 | 1352.7 | 1336 | 1319.7
x1 = 0.2513 | 857.155 | 853.609 | 850.057 | 846.484 | 842.906 | 1385 | 1367.4 | 1350.8 | 1334.1 | 1318
x1 = 0.3099 | 863.89 | 860.297 | 856.695 | 853.085 | 849.466 | 1382.7 | 1365.1 | 1348.6 | 1331.8 | 1315.9
x1 = 0.4046 | 875.017 | 871.358 | 867.688 | 864.011 | 860.317 | 1379.6 | 1362.3 | 1345.7 | 1328.8 | 1312.8
x1 = 0.5087 | 887.59 | 883.854 | 880.111 | 876.354 | 872.591 | 1376.9 | 1359.7 | 1343.1 | 1326 | 1310.2
x1 = 0.6073 | 899.873 | 896.063 | 892.242 | 888.409 | 884.574 | 1374.5 | 1358.4 | 1341.8 | 1324.7 | 1308.1
x1 = 0.7051 | 912.356 | 908.464 | 904.568 | 900.658 | 896.746 | 1373.9 | 1357.8 | 1341.3 | 1323.9 | 1307.1
x1 = 0.7952 | 924.132 | 920.17 | 916.202 | 912.22 | 908.239 | 1373.4 | 1357.9 | 1341.4 | 1323.9 | 1306.6
x1 = 0.8515 | 931.68 | 927.667 | 923.651 | 919.614 | 915.585 | 1373.4 | 1358.6 | 1342.2 | 1324.6 | 1306.5
x1 = 0.9006 | 938.376 | 934.318 | 930.252 | 926.171 | 922.107 | 1374.5 | 1359.6 | 1343.1 | 1325.4 | 1307.4
x1 = 0.9379 | 943.482 | 939.393 | 935.294 | 931.189 | 927.082 | 1374.9 | 1360.6 | 1344.1 | 1326.3 | 1307.7
x1 = 1 | 952.288 | 948.1 | 943.909 | 939.704 | 935.503 | 1378.2 | 1361.3 | 1344.5 | 1326.4 | 1307.7
